Structures can show the parent of a compound that is named as a salt.
Columns and labels:
[1] = Wood apparatus, bath 37° C., 900 mL distilled water, 50 rpm, compressed 200-400 mg samples
Experimental: Intrinsic dissolution rate (IDR) measurements were performed using a Wood apparatus (Pharma Test PT-DT8 instrument) having a bath temperature of 37° C. Samples were prepared by compressing 200-400 mg samples at 1.5 metric tons for 1 minute. A dissolution medium consisting of 900 mL distilled water, and rotation speed of 50 rpm, was used for each experiment.

[2] = reported; cited from earlier work
[3] = CDER review, NDA 207561; cited from earlier work
[4] = rats; in comparison to tenofovir alafenamide hemifumarate; CN 105237571 B; cited from earlier work

Compound: CC(C)OC(=O)[C@H](C)N[P@](=O)(CO[C@H](C)Cn1cnc2c(N)ncnc21)Oc1ccccc1 [Tenofovir alafenamide fumarate (1:1), Tenofovir alafenamide fumarate]
- Intrinsic Dissolution Rate [1]: 0.87 mg min^−1 cm^−2

Compound: CC(C)OC(=O)[C@H](C)N[P@](=O)(CO[C@H](C)Cn1cnc2c(N)ncnc21)Oc1ccccc1 [tenofovir alafenamide, L-alanine, N—[(S)-[[(1 R)-2-(6-amino-9H-purin-9-yl)-1-methylethoxy]methyl]phenoxyphosphinyl]-, 1-methylethyl ester]
- bioavailability [2]: low

Compound: Tenofovir alafenamide succinate [Tenofovir alafenamide succinate (1:1)]
- Intrinsic Dissolution Rate [1]: 0.67 mg min^−1 cm^−2

Compound: tenofovir alafenamide hemifumarate
- Biopharmaceutics Classification System (BCS) class [3]: Class III
- solubility [3]: high

Compound: tenofovir alafenamide hemisuccinate
- absorption (AUC) [4]: higher
- maximum plasma concentration (Cmax) [4]: higher

Source: patent publication US11667656B2, “Crystalline forms of Tenofovir alafenamide” (Apotex Inc., priority 2021, dated 2023)
